Earlier results on one molecule are cited in US20120129178A1, “GENOMIC POLYMORPHISM FOR PREDICTING THERAPEUTIC RESPONSE” (University of Southern California, priority 1999, published 2012).

Read-outs that look alike come from different tables or passages of the source.

For data set [1], the system named is patients with gastric cancer. The following applies: gastric cancer patients treated with 5-Fu.
Data set [2] has as its system patients with disseminated colon cancer. The following applies: 46 patients with disseminated colon cancer; TS mRNA levels higher than 4.1.

Regarding `O=c1[nH]cc(F)c(=O)[nH]1` [5-FU, 5-Fluorouracil], the values for the median survival in data set [1] (TS mRNA levels >4.6) and in data set [1] (TS mRNA levels of 54.6 (so in the source)) were 6 months and at least 43 months, respectively. Further, the “response to 5-FU based treatment” value in data set [2] is reported as “No patient with TS mRNA levels higher than 4.1 responded to treatment”.
